Measurements: patent US12226425B2, “Inhibitors of ARG1 and/or ARG2” (Arcus Biosciences, Inc., priority 2018, dated 2025)

Target: T1, recombinant human ARG1 (Homo sapiens, UniProt P05089)
T1 sequence (P05089 1-322): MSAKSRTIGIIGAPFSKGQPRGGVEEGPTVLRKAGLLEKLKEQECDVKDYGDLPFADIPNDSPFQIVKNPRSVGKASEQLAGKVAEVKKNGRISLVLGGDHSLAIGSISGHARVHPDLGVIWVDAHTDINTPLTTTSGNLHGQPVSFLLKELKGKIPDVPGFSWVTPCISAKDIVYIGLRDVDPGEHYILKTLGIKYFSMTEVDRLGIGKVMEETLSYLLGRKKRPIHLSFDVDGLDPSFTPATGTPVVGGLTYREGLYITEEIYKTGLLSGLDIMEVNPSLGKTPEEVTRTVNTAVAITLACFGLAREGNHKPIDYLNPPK
Assay: Arginase coupled enzymatic assay using recombinant human ARG1
Type: biochemical
Details: 2 nM ARG1, 0.8 mM L-Arginine, 10 mM sodium phosphate pH 7.4, 0.1 mM MnCl2, 37° C., absorption at 570 nm; read-out: hARG1 potency (IC50)
Description: Purified recombinant human ARG1 and ARG2 were prepared in 50 mM Bicine, pH 8.5, 100 μM MnCl2, 20% glycerol and 1mM DTT at a final stock concentration of 14.4 μM and 7.56 μM respectively. 2.5 nM of either ARG1 or ARG2 were incubated with varying concentrations of compounds in 10 mM sodium phosphate, pH 7.4, 0.1 mM MnCl2 and 2.5% DMSO in a total volume of 40 μl in a 384-well microplate (Corning™ #3640) at 37° C. for 1 h. The arginase enzymatic reaction was initiated by addition of 10 μl of 4 mM L-Arginine pre-incubated in 10 mM sodium phosphate, pH 7.4, and 0.1 mM MnCl2 at 37° C. into the enzyme and compound mixture, giving the final reaction conditions: 2 nM of ARG1 or ARG2 and 0.8 mM of L-Arginine in 10 mM sodium phosphate, pH 7.4, 0.1 mM MnCl2 and 2% DMSO with varying concentrations of compounds. Following 2 h incubation at 37° C., the arginase enzymatic reaction was stopped by transfer of 10 μl of reaction into 10 μl of detection mix (204 μM Amino-2-Borono-6-Hexanoic Acid, 0.25 μl Arginase Enzyme mix, 0.25 μl Arginase Developer, 0.25 μl Arginase Converter Enzyme in Arginase Assay Buffer from Arginase Activity Colorimetric Assay Kit, BioVision Inc. #K755-100) in a transparent 384-well microplate (Greiner #781801). The plate was immediately put into a plate reader (Synergy™ Neo2 Multi-Mode Microplate Reader) to monitor absorption at 570 nm at 37° C. Absorption values at 12˜20 min were used to calculate compound potency. The value of the DMSO blank (MIN inhibition=100% activity) was used as a negative control. The positive control was established by adding 8 μl of enzyme and DMSO mix into 10 μl of detection mix followed by addition of 2 μl of L-Arginine (MAX inhibition=0% activity). To calculate the percent activity, Equation 1 was used. Abs570nm is the value at a given compound concentration:
A counter-screen was performed to identify any inhibition of the coupling enzymes by the test compounds. 10 μl of 0.26 mM of urea with varying concentrations of compounds in 10 mM sodium phosphate, pH 7.4, 0.1 mM MnCl2 and 2% DMSO were added into 10 μl of detection mix in place of the arginase enzymatic reaction mix. Absorption was monitored at 570 nm as described above. The values of a no substrate blank (without urea; MAX inhibition=0% activity) and a DMSO blank (MIN inhibition=100% activity) were used as positive and negative controls respectively. […] Inactivity in the counter-screen was used to confirm that results accurately reflected IC50 values for ARG1 and ARG2.

Row | Structure (SMILES) | IC50 [nM]
1 | CN[C@@]1(C(=O)O)c2cc(-c3ncccc3C)c(F)cc2C[C@@H]1CCCB(O)O | 100 to 1000
2 | CN[C@@]1(C(=O)O)c2cc(C(C)(C)N)c(F)cc2C[C@@H]1CCCB(O)O | < 100
3 | NCCc1cc2c(cc1Cl)C[C@H](CCCB(O)O)[C@]2(N)C(=O)O | < 100
4 | CN[C@@]1(C(=O)O)c2cc(Cl)c(CN)cc2C[C@@H]1CCCB(O)O | < 100
5 | CN[C@@]1(C(=O)O)c2cc([C@H](C)N)c(Cl)cc2C[C@@H]1CCCB(O)O | < 100
6 | CN[C@@]1(C(=O)O)c2cc(-c3ccccc3CO)c(F)cc2C[C@@H]1CCCB(O)O | 100 to 1000
7 | CN[C@@]1(C(=O)O)c2cc(CN3CCCCC3)c(F)cc2C[C@@H]1CCCB(O)O | < 100
8 | CN[C@@]1(C(=O)O)c2cc(CN3CCCC3)c(F)cc2C[C@@H]1CCCB(O)O | < 100
9 | CN[C@@]1(C(=O)O)c2cc([C@@H](N)C(F)(F)F)ccc2C[C@@H]1CCCB(O)O | 100 to 1000
10 | CN[C@@]1(C(=O)O)c2cc(-c3ccc(F)cc3CN)c(F)cc2C[C@@H]1CCCB(O)O | < 100
11 | CN[C@@]1(C(=O)O)c2cc(N3CC[C@H](O)C3)c(F)cc2C[C@@H]1CCCB(O)O | 100 to 1000
12 | CN[C@@]1(C(=O)O)c2cc(-c3cccc(F)c3C(C)(C)N)c(F)cc2C[C@@H]1CCCB(O)O | < 100
13 | CN[C@@]1(C(=O)O)c2cc([C@@H]3CCCN3)c(F)cc2C[C@@H]1CCCB(O)O | < 100
14 | CN[C@@]1(C(=O)O)c2cc([C@H](C)N)ccc2C[C@@H]1CCCB(O)O | < 100
15 | CNCc1cc2c(cc1F)C[C@H](CCCB(O)O)[C@]2(NC)C(=O)O | < 100
16 | NCCc1cccc2c1C[C@H](CCCB(O)O)[C@]2(N)C(=O)O | 100 to 1000
17 | CN[C@@]1(C(=O)O)c2cc([C@@H](C)N)c(F)cc2C[C@@H]1CCCB(O)O | < 100
18 | CN[C@@]1(C(=O)O)c2cc(CN3CCCC3(C)C)c(F)cc2C[C@@H]1CCCB(O)O | < 100
19 | CN[C@@]1(C(=O)O)c2cc(CCCN)c(F)cc2C[C@@H]1CCCB(O)O | < 100
20 | N[C@@]1(C(=O)O)c2cc(Cl)ccc2C[C@@H]1CCCB(O)O | 100 to 1000
21 | CN[C@@]1(C(=O)O)c2cc([C@@H](C)N)c(Cl)cc2C[C@@H]1CCCB(O)O | < 100
22 | N[C@@]1(C(=O)O)c2cccc(-c3cn[nH]c3)c2C[C@@H]1CCCB(O)O | > 1000
23 | CC[C@@](C)(N)c1cc2c(cc1F)C[C@H](CCCB(O)O)[C@]2(NC)C(=O)O | < 100
24 | CN[C@@]1(C(=O)O)c2cc(C(C)(C)N)c(Cl)cc2C[C@@H]1CCCB(O)O | < 100
25 | Cc1ccc2c(c1)[C@@](N)(C(=O)O)[C@@H](CCCB(O)O)C2 | > 1000

Row | Structure (SMILES) | IC50 [nM]
26 | CN[C@@]1(C(=O)O)c2cc(OC)c(CN)cc2C[C@@H]1CCCB(O)O | < 100
27 | CN[C@@]1(C(=O)O)c2cc(OCCN)ccc2C[C@@H]1CCCB(O)O | < 100
28 | CN[C@@]1(C(=O)O)c2cc(CN)c(F)cc2C[C@@H]1CCCB(O)O | < 100
29 | CN[C@@]1(C(=O)O)c2cc([C@H]3CCCN3)c(F)cc2C[C@@H]1CCCB(O)O | < 100
30 | CN[C@@]1(C(=O)O)c2cc([C@@H](N)C3CC3)c(Cl)cc2C[C@@H]1CCCB(O)O | < 100
31 | CN[C@@]1(C(=O)O)c2cc(C3(N)CCCC3)c(F)cc2C[C@@H]1CCCB(O)O | < 100
32 | CN[C@@]1(C(=O)O)c2cc([C@H](N)C(C)C)c(F)cc2C[C@@H]1CCCB(O)O | < 100
33 | CN[C@@]1(C(=O)O)c2cc([C@H](C)N)c(OC)cc2C[C@@H]1CCCB(O)O | < 100
34 | CN[C@@]1(C(=O)O)c2cccc(CN)c2C[C@@H]1CCCB(O)O | < 100
35 | CCN[C@@]1(C(=O)O)c2cc(OC)c(CN)cc2C[C@@H]1CCCB(O)O | 100 to 1000
36 | CN[C@@]1(C(=O)O)c2cc([C@H](C)N)c(F)cc2C[C@@H]1CCCB(O)O | < 100
37 | CN[C@@]1(C(=O)O)c2cc([C@H](N)C3CC3)c(Cl)cc2C[C@@H]1CCCB(O)O | < 100
38 | NCc1cccc2c1C[C@H](CCCB(O)O)[C@]2(N)C(=O)O | 100 to 1000
39 | CN[C@@]1(C(=O)O)c2cc([C@H](N)C(F)(F)F)ccc2C[C@@H]1CCCB(O)O | 100 to 1000
40 | CN[C@@]1(C(=O)OC)c2cc(CN)c(Cl)cc2C[C@@H]1CCCB(O)O | 100 to 1000
41 | CN[C@@]1(C(=O)O)c2cc(C(C)(C)C(C)(C)N)c(F)cc2C[C@@H]1CCCB(O)O | < 100
42 | CN[C@@]1(C(=O)O)c2cc(CNC3CCCC3)c(F)cc2C[C@@H]1CCCB(O)O | < 100
43 | CN[C@@]1(C(=O)O)c2cc(C3(CNC(=O)[C@H](C)N)CCC3)c(F)cc2C[C@@H]1CCCB(O)O | < 100
44 | CN[C@@]1(C(=O)O)c2cc(CN(C)C)c(Cl)cc2C[C@@H]1CCCB(O)O | < 100
45 | CC[C@H](N)c1cc2c(cc1F)C[C@H](CCCB(O)O)[C@]2(NC)C(=O)O | < 100
46 | CN[C@@]1(C(=O)O)c2cc(-c3cccnc3)c(F)cc2C[C@@H]1CCCB(O)O | 100 to 1000
47 | CN[C@@]1(C(=O)O)c2cc(CNC(C)C)c(F)cc2C[C@@H]1CCCB(O)O | < 100
48 | Cc1ccc2c(c1)C[C@H](CCCB(O)O)[C@]2(N)C(=O)O | > 1000
49 | CN[C@@]1(C(=O)O)c2cc(CNC(=O)[C@H](C)N)ccc2C[C@@H]1CCCB(O)O | < 100
50 | CN[C@@]1(C(=O)O)c2cc(CN)c(Cl)cc2C[C@@H]1CCCB(O)O | < 100

Row | Structure (SMILES) | IC50 [nM]
51 | CN[C@@]1(C(=O)O)c2cc(-c3ncccc3N)c(F)cc2C[C@@H]1CCCB(O)O | 100 to 1000
52 | CN[C@@]1(C(=O)O)c2cc(C3(N)CCC3)ccc2C[C@@H]1CCCB(O)O | < 100
53 | CN[C@@]1(C(=O)O)c2cc(CN3CCC(F)(F)CC3)c(F)cc2C[C@@H]1CCCB(O)O | 100 to 1000
54 | N[C@@]1(C(=O)O)c2cccc(CO)c2C[C@@H]1CCCB(O)O | > 1000
55 | CN[C@@]1(C(=O)O)c2cc([C@H](N)C3CC3)c(F)cc2C[C@@H]1CCCB(O)O | < 100
56 | CN[C@@]1(C(=O)O)c2cc(-c3ccccc3CCN)c(F)cc2C[C@@H]1CCCB(O)O | < 100
57 | CN[C@@]1(C(=O)O)c2cc(C3(N)CCCCC3)c(F)cc2C[C@@H]1CCCB(O)O | < 100
58 | CC[C@@H](N)c1cc2c(cc1F)C[C@H](CCCB(O)O)[C@]2(NC)C(=O)O | < 100
59 | CC[C@](C)(N)c1cc2c(cc1F)C[C@H](CCCB(O)O)[C@]2(NC)C(=O)O | < 100
60 | CN[C@@]1(C(=O)O)c2cc(O[C@@H]3CCC[C@H]3N)c(F)cc2C[C@@H]1CCCB(O)O | < 100
61 | CN[C@@]1(C(=O)O)c2cc(-c3cccc(CN)c3)c(Cl)cc2C[C@@H]1CCCB(O)O | < 100
62 | CN[C@@]1(C(=O)O)c2cc(C3(N)CC(C)(C)C3)c(F)cc2C[C@@H]1CCCB(O)O | < 100
63 | CN[C@@]1(C(=O)O)c2cc([C@@H](N)C(C)C)c(Cl)cc2C[C@@H]1CCCB(O)O | < 100
64 | CNCc1cccc2c1C[C@H](CCCB(O)O)[C@]2(NC)C(=O)O | 100 to 1000
65 | CN[C@@]1(C(=O)O)c2cc(C3(C(C)(C)N)CCC3)c(F)cc2C[C@@H]1CCCB(O)O | < 100
66 | CN[C@@]1(C(=O)O)c2cc(-c3ccc(CN)cc3)c(Cl)cc2C[C@@H]1CCCB(O)O | < 100
67 | NC1(c2cc3c(cc2F)C[C@H](CCCB(O)O)[C@]3(N)C(=O)O)CCC1 | < 100
68 | CN[C@@]1(C(=O)O)c2cccc(OC)c2C[C@@H]1CCCB(O)O | > 1000
69 | CN[C@@]1(C(=O)O)c2cc(CNC3CC3)c(F)cc2C[C@@H]1CCCB(O)O | < 100
70 | CN[C@@]1(C(=O)O)c2cc(CN3CCC[C@H]3C(=O)O)c(F)cc2C[C@@H]1CCCB(O)O | 100 to 1000
71 | CN[C@@]1(C(=O)O)c2cc(-c3ccccn3)c(F)cc2C[C@@H]1CCCB(O)O | 100 to 1000
72 | CN[C@@]1(C(=O)O)c2cc(CN3CCC(c4ccccc4)CC3)c(F)cc2C[C@@H]1CCCB(O)O | < 100
73 | CN[C@@]1(C(=O)O)c2c(F)cc(CN)cc2C[C@@H]1CCCB(O)O | 100 to 1000
